# Experimental data from ChEMBL document CHEMBL1201862, “PubChem BioAssay data set” (2004).
#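 Protocol summary: plate cells (96-well), add compound at 5 concentrations, incubate 48 h, interpolate endpoints linearly. GI50: concentration for 50% inhibition of growth.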 Active and inactive are the calls of the source. Rule as the data show it: active = GI50 up to about 1.1 µM and inactive = higher.
# Experiments:
# Experiment in all cases: NCI-60 cell line screen, 48 h
# CAKI-1 = system: CAKI-1
# OVCAR-3 = system: OVCAR-3
# NCI-H522 = system: NCI-H522
# CCRF-CEM = system: CCRF-CEM
# SK-MEL-5 = system: SK-MEL-5
# OVCAR-5 = system: OVCAR-5
# M14 = system: M14
# HOP-62 = system: HOP-62
# NCI/ADR-RES = system: NCI/ADR-RES
# KM12 = system: KM12
# UACC-62 = system: UACC-62
# SR = system: SR
# OVCAR-4 = system: OVCAR-4
# LOX IMVI = system: LOX IMVI
# OVCAR-8 = system: OVCAR-8
# 786-0 = system: 786-0
# HCC 2998 = system: HCC 2998
# SK-OV-3 = system: SK-OV-3
SMILES,GI50 (CAKI-1),GI50 (OVCAR-3),GI50 (NCI-H522),GI50 (CCRF-CEM),GI50 (SK-MEL-5),GI50 (OVCAR-5),GI50 (M14),GI50 (HOP-62),GI50 (NCI/ADR-RES),GI50 (KM12),GI50 (UACC-62),GI50 (SR),GI50 (OVCAR-4),GI50 (LOX IMVI),GI50 (OVCAR-8),GI50 (786-0),GI50 (HCC 2998),GI50 (SK-OV-3)
COc1cc(C2CC(C)(O)Oc3cc4c(cc32)OCO4)cc(OC)c1OC (configuration not stated),0.417 µM (active),0.315 µM (active),0.266 µM (active),0.34 µM (active),0.208 µM (active),10.9 µM (inactive),0.466 µM (active),0.501 µM (active),0.233 µM (active),0.191 µM (active),0.23 µM (active),0.374 µM (active),0.938 µM (active),0.839 µM (active),0.421 µM (active),0.375 µM (active),1.31 µM (inactive),–
COc1cc(S(=O)(=O)Nc2ccc(-c3csc(N4C(=O)CSC4c4cccs4)n3)cc2)ccc1Cl (configuration not stated),79.8 µM (inactive),51.5 µM (inactive),15.9 µM (inactive),4.98 µM (inactive),64 µM (inactive),> 100 µM (inactive),46.9 µM (inactive),42.7 µM (inactive),> 100 µM (inactive),20.4 µM (inactive),–,29.7 µM (inactive),18.4 µM (inactive),18.7 µM (inactive),41.5 µM (inactive),28.4 µM (inactive),15.6 µM (inactive),56.4 µM (inactive)
Cc1cc2c3c(c1)CCCN3CCC2,> 10 µM (inactive),> 10 µM (inactive),> 10 µM (inactive),> 10 µM (inactive),> 10 µM (inactive),–,> 10 µM (inactive),> 10 µM (inactive),> 10 µM (inactive),> 10 µM (inactive),> 10 µM (inactive),> 10 µM (inactive),> 10 µM (inactive),> 10 µM (inactive),> 10 µM (inactive),> 10 µM (inactive),> 10 µM (inactive),> 10 µM (inactive)
CCc1nc(N)c2nc(-c3cccs3)oc2n1,> 100 µM (inactive),> 100 µM (inactive),> 100 µM (inactive),77.1 µM (inactive),> 100 µM (inactive),> 100 µM (inactive),> 100 µM (inactive),> 100 µM (inactive),> 100 µM (inactive),> 100 µM (inactive),> 100 µM (inactive),54.8 µM (inactive),–,87.7 µM (inactive),> 100 µM (inactive),> 100 µM (inactive),> 100 µM (inactive),–
O=c1c2cc([N+](=O)[O-])ccc2[nH]n1Cc1ccccn1,> 100 µM (inactive),> 100 µM (inactive),> 100 µM (inactive),> 100 µM (inactive),> 100 µM (inactive),> 100 µM (inactive),> 100 µM (inactive),> 100 µM (inactive),> 100 µM (inactive),> 100 µM (inactive),> 100 µM (inactive),> 100 µM (inactive),> 100 µM (inactive),> 100 µM (inactive),> 100 µM (inactive),> 100 µM (inactive),> 100 µM (inactive),–
O=C1C(=O)N(C2CCCCC2)C(=S)N1C1CCCCC1,> 100 µM (inactive),–,7.76 µM (inactive),> 100 µM (inactive),> 100 µM (inactive),> 100 µM (inactive),–,> 100 µM (inactive),> 100 µM (inactive),> 100 µM (inactive),> 100 µM (inactive),> 100 µM (inactive),> 100 µM (inactive),> 100 µM (inactive),> 100 µM (inactive),> 100 µM (inactive),> 100 µM (inactive),> 100 µM (inactive)
CC(C)C[C@H](NC(=O)[C@H](Cc1cccc2ccccc12)NS(=O)(=O)c1cccc2cccnc12)B(O)O,0.0923 µM (active),< 0.0111 µM (active),0.0106 µM (active),< 0.01 µM (active),< 0.01 µM (active),< 0.0142 µM (active),–,0.0444 µM (active),2.32 µM (inactive),0.0432 µM (active),0.0223 µM (active),< 0.0167 µM (active),0.0109 µM (active),< 0.0118 µM (active),0.0557 µM (active),0.0222 µM (active),0.00219 µM (active),0.359 µM (active)
